According to patent US9737523B2, “Anti-fibrogenic compounds, methods and uses thereof” (priority 2013, dated 2017):

Assays:
synoviocytes = test: MMP-1 expression in synoviocytes, Western blot; type: cell-based, human; conditions: 12.5 μg/ml to 150 μg/ml, 48 hours
Description: Synoviocytes were obtained by enzymatic digestion of synovial membrane from patients with rheumatoid arthritis during joint replacement with 1 mg/ml collagenase (Sigma™) in RPMI1640 (Invitrogen Life Technologies™) for 4 hours at 37° C. Dissociated cells were plated in synoviocyte growth medium (Cell Applications Inc.™, San Diego, Calif.) supplemented with penicillin G sodium (100 U/mL), streptomycin sulfate (100 μg/mL), and amphotericin B (0.25 μg/mL).
(§1) Similarly, other cells such as synoviocytes, IMR-90, keratinocytes, UMSCC and A549 were treated with kynurenine at concentrations of 12.5 to 150 μg/ml in appropriate media for each cell type as described above for 48 hours. Cells were then harvested for western blot analysis.
(§2) Cells were harvested by Trypsin/EDTA and lysed with cell lysis buffer containing 50 mM Tris-HCl (pH7.40), 150 mM NaCl, 10 mM EDTA, 5 mM EGTA, 1% TritonX-100™, 0.5% Igepal CA-630, 0.025% NaN3 and protease inhibitor cocktail (Sigma™). Cell debris was removed by centrifugation at 20,000×g for 10 minutes. The protein concentration in supernatant was determined using the MicroBCA™ method (Pierce™, Rockford, Ill.). Proteins in supernatant were mixed with protein sample loading buffer (final concentration: 60 mM Tris-HCl (pH 6.80), 2% SDS, 10% glycerol, 1.5% β-mercaptoethanol, 0.002% bromophenol blue) and size fractioned by 10% of SDS-polyacrylamide gel. […]

dermal keratinocytes = test: MMP-1 expression in primary dermal keratinocytes, Western blot; type: cell-based, human; conditions: 12.5 to 150 μg/ml, 48 hours
Description: Human foreskin keratinocytes were established as previously described (Ghahary et al., 1998). Cells were cultured in serum-free keratinocyte medium (KSFM; Invitrogen Life Technologies™) supplemented with bovine pituitary extract (50 μg/ml) and EGF (0.2 ng/ml). These cells were used at passages 2-5.
as §1, §2

type 1 procollagen = test: Type 1 procollagen expression in dermal fibroblasts, Western blot; type: cell-based, human; conditions: 25-150 μg/ml, 48 hours
Description: (§3) Cell debris was removed by centrifugation at 20,000×g for 10 minutes. The protein concentration in supernatant was determined using the MicroBCA™ method (Pierce™, Rockford, Ill.). Proteins in supernatant were mixed with protein sample loading buffer (final concentration: 60 mM Tris-HCl (pH 6.80), 2% SDS, 10% glycerol, 1.5% β-mercaptoethanol, 0.002% bromophenol blue) and size fractioned by 10% of SDS-polyacrylamide gel. After proteins were transferred onto nitrocellulose membrane by iBlot™ (Invitrogen Life Technologies™), non-specific binding were blocked with phosphate buffer saline twenty 20 (PBS-T) containing 5% skim milk for 1 hour. The membrane was then incubated with primary antibody overnight. After incubation with a secondary antibody for 1 hour, protein bands were visualized by an enhanced chemiluminescence (ECL™) detection system (Santa Cruz Biotechnology™, Santa Cruz, Calif.). […] The secondary antibodies were either goat anti-mouse IgG (H+L) HPR conjugate or goat anti-rabbit IgG (H+L) HPR conjugate (Bio-rad Laboratory™ (Mississauga, ON, Canada). Secondary antibodies were used at a concentration of 1:3000.

IMR-90 = test: MMP-1 expression in lung fibroblast cell line IMR-90, Western blot; type: cell-based, human; conditions: IMR-90, 12.5 μg/ml to 150 μg/ml, 48 hours
Description: The squamous cell carcinoma (UMSCC) cell line derived from patients with head and neck cancer (ATCC™, Manassas, Va.) were maintained in RPMI-1640 medium with 10% FBS. The Human keratinocyte cell line HACAT (ATCC) and the carcinomic human alveolar basal epithelial cell line A549 (ATCC™) were cultured in DMEM with 10% FBS. The diploid lung fibroblasts IMR-90 (ATCC™) were maintained in Minimum Essential Medium (MEM, Invitrogen™) with 10% FBS.
as §1, §2

mouse splenocytes = test: Immune factor protein microarray of conditioned media of ConA-activated splenocytes; type: cell-based; conditions: 100 μg/mL, 48 hrs
MMP-2 = MMP-2 expression in human dermal fibroblasts, Western blot; type: cell-based; conditions: various concentrations, 48 hours
Description: In another set of experiments, fibroblasts at 80% confluence were treated with either kynurenine or tryptophan at the indicated concentrations as mentioned in the result section in DMEM containing 2% FBS and antibiotics for 48 hours. Cells were then harvested by trypsinization and western blot analysis was performed.
as §2, with “gel. After proteins were transferred onto nitrocellulose membrane by iBlot™ (Invitrogen Life Technologies™), non-specific binding were blocked with phosphate buffer saline twenty 20 (PBS-T) containing 5% skim milk for 1 hour. The membrane was then incubated with primary antibody overnight.” for “gel.”

MMP-3 = MMP-3 expression in human dermal fibroblasts, Western blot; type: cell-based; conditions: various concentrations, 48 hours, dose-dependent
Description: Cells were then harvested by trypsinization and western blot analysis was performed.
as §3

Nc1ccccc1C(=O)CC(N)C(=O)O (racemic) [kynurenine]
MMP-1 expression (synoviocytes): up-regulated | MMP-1 expression versus untreated controls (dermal keratinocytes): did not significantly differ | expression of type 1 procollagen (type 1 procollagen): remarkably decreases | MMP-1 expression (IMR-90): up-regulated | IL-17 production (mouse splenocytes): significantly decrease | proinflammatory cytokine and chemokine production (IL-1, IL-2, CXCL9, CXCL10) (mouse splenocytes): immune suppressive effect | MMP-2 expression versus untreated fibroblasts (MMP-2): no significant difference | MMP-3 expression (MMP-3): significantly increased
